Data reported in patent US20050164976A1, “Combination of a cdk inhibitor and 5-fu for the tratment of cancer” (Cyclacel Limited, priority 2002, published 2005).

Columns and labels:
HT29 cells [1] = assay: cells; conditions: Homo sapiens, HT-29
Text: Cells were washed in media to inactivate trypsin before reseeding or analysis.

HT29 cells [2] = assay: analysis of cell cycle distribution by flow cytometry; type: cell-based, human; conditions: single agent, 48 hours; roscovitine 20 μM and 40 μM; 5-FU 0.5 μM and 1 μM; dose dependent
HT29 cells [3] = assay: activated caspase-3 assay; type: cell-based, human; conditions: single agent, dose dependent
MCF7 cells = assay: cells; conditions: Homo sapiens
Experimental: MCF7 cells were seeded at 3,000/well in 96 well plates. Cell were allowed to settle overnight, and medium replaced with drug-containing medium the next day. Nine different drug treatments were tested, in triplicate, in each plate.

HT29 cells [4] = conditions: single agent; 40 μM roscovitine; 1 μM 5-FU
Experimental: HT29 cells were seeded and treated with drug in the same way as for the determination of cell cycle distribution. After 24 hours, media was replaced with that containing 10 μM BrdU and incubated for 30 minutes. Detached cells were harvested, plates were washed twice in PBS and adherent cells harvested by trypsinisation. Adherent and detached cells were pooled, washed in PBS, fixed in ice cold 70% v/v ethanol and stored at 4° C. Cells were washed twice in PBS+1% BSA and treated with 2M HCl for 20 minutes, followed by a further three washes in PBS. Cells were pelleted and 2 μl of anti-BrdU antibody (Pharmingen) added to the pellet. […] After incubation at room temperature protected from light for 20 minutes, samples were analysed by flow cytometry.
A Becton Dickinson LSR flow cytometer was used for these studies, in accordance with the manufacturers recommendations. […] Where used, activated caspase-3 and BrdU positive cells were designated as such on the basis of green fluorescence (530±28 nm), acquired on a logarithmic scale. Red fluorescence (575±26 nm) was acquired on a linear scale and pulse width analysis was used to exclude cell doublets and aggregates from the analysis. Cells with a DNA content of between 2n and 4n were designated as being in G1, S or G2/M phases of the cell cycle, as defined by the level of red fluorescence. […]

[5] = system: human mammary cancer xenograft MAXF 857; conditions: 5FU alone at the concentrations used in the combination
Experimental: Cells were passed through sieves of 200 μm and 50 μm mesh size and washed twice with sterile PBS-buffer (Life Technologies). The percentage of viable cells was determined in a Neubauer-hemocytometer using trypan blue exclusion.
The clonogenic assay was performed in a 24-well format according to a modified two-layer soft agar assay introduced by Hamburger et al [Hamburger, A. W. & S. E. Salmon. […] The bottom layer consisted of 0.2 ml/well of Iscove's Modified Dulbecco's Medium (supplemented with 20% (v/v) fetal calf serum and 0.01% (v/v) gentamicin) and 0.75% (w/v) agar. 5·10^4 cells were added to 0.2 ml of the same culture medium supplemented with 0.4% (w/v) agar and plated in 24-multiwell dishes onto the bottom layer. Cytostatic drugs were applied by continuous exposure (drug overlay) in 0.2 ml culture medium 24 hours after seeding in the cells. Every dish included six control wells and drug-treated groups in triplicate at 6 concentrations. […] Cultures were incubated at 37° C. and 7.5% CO2 in a humidified atmosphere for 8-20 days and monitored closely for colony growth using an inverted microscope. Within this period, in vitro tumor growth led to the formation of colonies with a diameter of >50 μm. At the time of maximum colony formation, counts were performed with an automatic image analysis system (OMNICON FAS IV, Biosys GmbH). […]

Compound	IC50 (HT29 cells [1]) [µM]	effect on cell cycle distribution (HT29 cells [2])	activation of caspase-3 (HT29 cells [3])	IC50 (MCF7 cells) [µM]	number of cells incorporating BrdU (HT29 cells [4]) [%]	effect on cell growth [5]
O=c1[nH]cc(F)c(=O)[nH]1 [5-FU, 5-Fluorouracil]	1	accumulation of cells in S phase	albeit to a lesser extent	8	64.3	no effect on cell growth
CC[C@H](CO)Nc1nc(NCc2ccccc2)c2ncn(C(C)C)c2n1 [roscovitine, 6-benzylamino-2-[(R)-1-ethyl-2-hydroxyethylamino]-9-isopropylpurine]		accumulation of cells in G2/M	induces activation of caspase-3		3.8	
